Data published in patent US12391919B2, “Culture medium, coating matrix and method for maturing midbrain dopaminergic progenitor cells” (NUWACELL BIOTECHNOLOGIES CO., LTD., priority 2022, dated 2025).

Experiments:
Type in all cases: cell-based, human
imDAPs [1] = experiment: imDAP expansion: cell morphology, cell number (Vi-cell cytometer), expansion fold, Population Doubling Time
Procedure: imDAPs were produced according to the method described in CN201910169525.0. The imDAPs (P0) were seeded on VTN-coated plates (1 μg/cm^2) at a density of 1×10^5 cells/cm^2 in the expansion medium (50% DMEM/F12, 50% Neurobasal™ medium, 1% (v/v) Glutamax, 2% (v/v) B27 (50×), 0.2 μM LDN193189, 3 μM CHIR99021, 100 ng/mL FGF8b) in the absence or presence of 5 μM Blebbistatin. In case where Blebbistatin is present, Blebbistatin was either removed 24 hrs after plating or present throughout the culture period. The medium was changed every day for 5 days.
imDAPs were produced according to the method described in CN201910169525.0. The imDAPs (P0) were seeded on VTN-coated plates (1 μg/cm^2) at a density of 1×10^5 cells/cm^2 in the expansion medium (50% DMEM/F12, 50% Neurobasal™ medium, 1% (v/v) Glutamax, 2% (v/v) B27 (50×), 3 μM CHIR99021, 100 ng/mL FGF8b, […]) in the absence or presence of 0.2 μM LDN193189. The medium was changed every day for 5 days.
imDAPs were produced according to the method described in CN201910169525.0. The imDAPs (P0) were seeded on VTN-coated plates (1 μg/cm^2) at a density of 1×10^5 cells/cm^2 in the expansion medium (50% DMEM/F12, 50% Neurobasal™ medium, 1% (v/v) Glutamax, 2% (v/v) B27 (50×), 0.2 μM LDN193189, 3 μM CHIR99021, 100 ng/mL FGF8b, 5 μM Blebbistatin). The medium was changed every day. When imDAPs reach 100% confluence (4-5 days), cells were passaged enzymatically with 1× TrypLE, centrifuged at 250 g for 5 minutes, counted and replaced on new VTN-coated plates (1 μg/cm^2) at a density of 1×10^5 cells/cm^2 in the expansion medium. imDAPs were continuously expanded for 6 passages. At each passage, imDAPs were harvested at an expansion fold 5˜10 (over the initial number of imDAPs plated).
imDAPs were produced according to the method described in CN201910169525.0. The imDAPs (P0) were seeded on DLL4-coated ([…]), VTN-coated (1 μg/cm^2) and DLL4/VTN-coated ([…]) plates at a low density of 1×10^4 cells/cm^2 respectively, and cultured in the expansion medium in the absence or presence of 5 µM SB431542. Medium was replaced every 3rd day until reaching 100% confluence (6 days) for cell collection. The typical cell morphology on day 4 was recorded (FIG. 4A). The cell number of each group was counted by Vi-cell cytometer (FIG. 4B). The cells of each group were stained with Foxa2-PE antibody (BD, #561589), the percentage of Foxa2+ imDAPs were analyzed by flow cytometry (FIG. 4C). The expansion medium used in this example contained the following components: 50% DMEM/F12, 50% Neurobasal™ medium, 1% (v/v) Glutamax, 1% (v/v) B27, 50 μg/ml ascorbic acid, 0.2 μM LDN193189, 100 ng/ml FGF8b, 3 μM CHIR99021 and 10 μM Y27632.
imDAPs were produced according to the method described in CN201910169525.0. The imDAPs (P0) were seeded on DLL4/VTN-coated (1 μg/cm^2 for each) plates at a low density of 1×10^4 cells/cm^2, and cultured in the expansion medium (EM1, EM2, EM3, EM4). Medium was replaced every 3rd day until reaching 100% confluence (6 days) for cell collection. EM1 used in Example 9 contained the following components: 50% DMEM/F12, 50% Neurobasal™ medium, 1% (v/v) Glutamax, 1% (v/v) B27 (50×), […], 3 μM CHIR99021, 5 μM SB431542 and 10 μM Y27632. EM2 used in Example 9 contained the following components: 50% DMEM/F12, 50% Neurobasal™ medium, 1% (v/v) Glutamax, 1% (v/v) B27 (50×), 50 μg/ml ascorbic acid, […] LDN193189, 3 μM CHIR99021, 5 μM SB431542 and 10 μM Y27632. EM3 used in Example 9 contained the following components: 50% DMEM/F12, 50% Neurobasal™ medium, 1% (v/v) Glutamax, 1% (v/v) B27 (50×), 50 μg/mL ascorbic acid, […], 100 ng/ml FGF8b, 3 μM CHIR99021, 5 μM SB431542 and 10 μM Y27632. EM4 used in Example 9 contained the following components: 50% DMEM/F12, 50% Neurobasal™ medium, 1% (v/v) Glutamax, 1% (v/v) B27 (50×), 50 μg/ml ascorbic acid, 0.2 μM LDN193189, 10 ng/ml FGF2, 3 μM CHIR99021, 5 μM SB431542 and 10 μM Y27632. […]

imDAPs [2] = experiment: imDAP maturation: cell morphology, adhesion and cell yield; conditions: Example 12; 1 μM IWR1 for at least 3 days; day 7; FIG. 7D
Procedure: imDAPs were produced according to the method described in CN201910169525.0, and expanded as described in Example 10. […] MM-H used in Example 11 contained the following components: Neurobasal™ medium, 1% (v/v) Glutamax, 0.5 mM Db-cAMP sodium salt, 200 μM ascorbic acid, 20 ng/ml BDNF, 20 ng/ml GDNF, 1 ng/ml TGF-β3, 10 μM DAPT, HhPLT (0.5%, 1%, 2%). MM-B used in Example 11 contained the following components: Neurobasal, 1% (v/v) Glutamax, 0.5 mM Db-cAMP sodium salt, 200 μM ascorbic acid, 20 ng/ml BDNF, 20 ng/ml GDNF, 1 ng/ml TGF-β3, 10 μM DAPT, 2% (v/v) B27 (50×) (as control). The above HhPLT was produced from hPLT as follows. The hPLT was centrifuged at 3000 g for 30 min at 4° C. to obtain the supernatant, which was heated to 56° C. for 30 min. The suspension was finally cooled down to 4° C. at least 5 min, and spun at 3000 g for 30 min at 4° C. to obtain the HhPLT supernatant. Aliquots were prepared and stored at −80° C. until use. The above Medium was changed every 3rd day. On day 7, the imDAPs at early maturation stage were dissociated enzymatically with 1× TrypLE, centrifuged at 250 g for 5 minutes.
imDAPs were produced according to the method described in CN201910169525.0, and expanded as described in Example 10. […] Medium was changed every 3rd day. On day 7, the imDAPs at early maturation stage were dissociated enzymatically with 1× TrypLE, centrifuged at 250 g for 5 minutes. Cells were collected for RT-qPCR analysis of EN1, LMX1A, FOXA2, NURR1, SOX6 and TH gene expression. The maturation medium used in Example 12 contained the following components: Neurobasal™ medium, 1% (v/v) Glutamax, 1% (v/v) HhPLT, 0.5 mM Db-cAMP sodium salt, 200 μM ascorbic acid, 20 ng/mL BDNF, 20 ng/mL GDNF, 1 ng/mL TGF-β3, 10 μM DAPT.
imDAPs were produced according to the method described in CN201910169525.0, and expanded as described in Example 10. […] Cells were collected and counted by Vi-cell cytometer. The cells were analyzed by RT-qPCR for EN1, LMX1A, FOXA2, NURR1, SOX6 and TH gene expression. […]

imDAPs [3] = experiment: Flow cytometry (FACS) analysis of FOXA2 expression in expanded imDAPs; conditions: Example 8; VTN or DLL4/VTN coating, with or without SB431542; FIG. 4C
Procedure: • 1. Individualize and collect cells by either Accutase or TrypLE treatment. • 2. Wash cells with 1 ml PBS and pellet cells at 250×g for 15 sec. • 3. Remove supernatant, add ˜200 μl of 4% PFA, mix and fix for 10 min at RT. • 4. Pellet cells at 350×g for 5 min. • 5. Wash cells by 1 ml of FACS buffer and pellet cells at 350×g for 5 min. • 6. Remove supernatant, add 200 μl/tube of FACS buffer/0.1% TritonX, mix for 10 min at RT. • 7. Wash cells by 1 ml of FACS buffer and pellet cells at 350×g for 5 min. • 8. Remove supernatant, add 200 μl/tube of primary antibody diluted in FACS buffer, mix gently, and incubate for 30 min at RT. • 9. Wash cells by 1 ml of FACS buffer and pellet cells at 350×g for 5 min. • 10. Remove supernatant, and add 200 μl of secondary antibody diluted in FACS buffer, mix gently, and incubate for 30 min at RT. • 11. Wash cells by 1 ml of FACS buffer and pellet cells at 300×g for 5 min. • 12. Remove supernatant, add 200 μl of FACS buffer, and run samples on the flow cytometry. (2) qRT-PCR • 1. For qRT-PCR analysis of mRNA gene expression, RNA should be harvested from at least 2×10^6 cells. • 2. Harvest cells, add 350 μl of buffer RLT+1% (vol/vol) s-mercaptoethanol to the well, transfer the lysate to a 1.5 ml tube, and put it immediately on ice. • 3. Perform RNA extraction using the Tiangen Kit (DP430), and follow the manufacturer's protocol ‘Purification of total RNA from animal and human cells’. • 4. When the RNA extraction was completed, determine the RNA concentration using a Nanodrop instrument. • 5. Perform the first-strand cDNA synthesis reaction with 1 μg of RNA using the HiScript TM II Q RT SuperMIX for qPCR(+gDNA wiper) Kit (Vazyme, #R223-01) for RT-qPCR. Follow the manufacturer's ‘First-Strand cDNA Synthesis’ protocol. This reaction would yield a 20 μl product. • 6. Dilute the 10 μl cDNA product in 80 μl of nuclease-free water. • 7. Pipette the diluted cDNA product (1 μl), Sybr green master mix (5 μl, Transgen, #AQ131) and 0.95 μM reverse/forward primer mix (4 μl) into a 384-well PCR plate in triplicate, either manually or using an automated pipetting robot. The complete primer panel included the target genes and the housekeeping gene (RPL13A). In the analysis, also included a sample of undifferentiated hPSCs to determine the gene expression levels relative to the expression in hPSCs. • 8. Analyze the samples by running a quantitative PCR on the LightCycler 480 instrument using a 40× cycle two-step protocol with a 60° C., 60 sec annealing/elongation step and a 95° C., 30 sec denaturation step. The average CT values from the three technical replicates were used for calculations of relative gene expression using the ΔΔCT method. For each gene, calculate the FC of the differentiated samples relative to the undifferentiated control sample using the housekeeping gene for normalization. Next, calculate the average of the FC values on the basis of the housekeeping gene. (3) Immunocytochemical Analysis • 1. Cell fixation: Remove the medium from the cells and wash with PBS. Add 4% (wt/vol) PFA (e.g., 200 μl to a well in a 48-well plate) and incubate at room temperature (RT) for 15 min. after incubation, wash the cells three times in PBS. • 2. Blocking: Remove PBS from the wells and add blocking solution to the cells, add enough volume to cover the cells. Leave the cells in blocking solution for 1 h at RT. • 3. Primary antibodies incubation: Remove the blocking solution from the cells and add the primary antibody solutions (˜100 μl/cm^2). […]

With `Cc1ccc2c(c1)C(=O)C1(O)CCN(c3ccccc3)C1=N2` (centres unmarked) [Blebbistatin] the “imDAP expansion (cell morphology)” value (imDAPs [1]; Example 1, 5 μM Blebbistatin throughout culture vs no Blebbistatin or plating day only, VTN-coated plates, 5 days, FIG. 1A) was “supported better imDAP expansion”.
For `O=C(Nc1cccc2cccnc12)c1ccc(N2C(=O)[C@@H]3[C@H](C2=O)[C@@H]2C=C[C@H]3C2)cc1` [IWR1], the “cell morphology during maturation” value (imDAPs [2]) was “showed more obvious neural fibers”.
With `NC(=O)c1ccc(-c2nc(-c3ccc4c(c3)OCO4)c(-c3ccccn3)[nH]2)cc1` [SB431542] the “FOXA2 expression (percentage of Foxa2+ imDAPs)” value (imDAPs [3]) was “could improve FOXA2 expression”.
For “FGF2: fibroblast growth factor, used at 10 ng/ml”, the “imDAP expansion (overall conclusion)” value (imDAPs [1]; Example 9) was “had no additional effects on imDAP expansion” and the “cell morphology of expanded imDAPs” value (imDAPs [1]; Example 9, 10 ng/ml FGF2 (EM4), DLL4/VTN-coated, day 5, FIG. 5A) was “some obvious heterogeneous cells were observed”.
